“Also recorded” adds a separate entry of the source.
Key:
[1] = biological target: T1, purified TAP-HOG1 (Arabidopsis thaliana, UniProt O23255); assay: biochemical; assay type: binding
T1 construct: Protein A (ProtA part of the TAP tag, TEV site between ProtA and CBP) (N, cleaved yes); made in house; host or cells: transgenic Arabidopsis thaliana harbouring 35S:TAP-HOG1
Experimental: (§1) Cytokinin binding affinity and thermodynamic analysis of the interaction between HOG1 and cytokinins was examined by ITC (MCSITC, Microcal, Northampton, USA). Three naturally occurring cytokinins (zeatin, benzyladenine and isopentenyl adenine) and thidiazuron (an urea-derived synthetic cytokinin) were used. Additionally, adenosine and NAD were used as control molecules to verify the binding specificity of HOG1 to cytokinins. Data were analyzed by MICROCAL ORIGIN version 2.9 using the best-fit, nonlinear least-squares method for one binding site. The binding stoichiometry (n), and association constant (KA) were calculated from the fitted curves. Subsequently, KD was calculated as 1/KA. Raw heat data were corrected to baseline drift obtained from injections of 0.1 μM purified AHP1 into the sample cell containing 2 μM purified TAP-HOG1. Binding isotherms were created by plotting the heat peak areas against the molar ratio of AHP1 added to HOG1.
Cytokinin binding affinity and thermodynamic analysis of the interaction between HOG1 and cytokinins was examined by ITC (MCSITC, Microcal, Northampton, USA). TAP-HOG1 fusion protein was purified using published protocols (Forler et al. supra) from transgenic Arabidopsis plants harboring the 35S:TAP-HOG1 construct. 0.01 μM benzyladenine (a naturally occurring cytokinin) and 0.1 μM of purified TAP-HOG1 protein were used for each ITC assay with 25 injections (each injection of 2 μl at […] intervals at 37° C.). Data were analyzed with MICROCAL ORIGIN version 2.9 using the best-fit, nonlinear least-squares method for one binding site. The binding stoichiometry (n), and association constant (KA) were calculated from the fitted curves. Subsequently, KD was calculated as 1/KA.

[2] = system: HOG1 anti-sense suppression (AS) line 12 plants; assay: Exogenous cytokinin spray on HOG1 anti-sense suppression line, phenotype; assay type: in vivo, Arabidopsis thaliana; settings: 0.01 μM spray on alternate days over four weeks
Experimental: Three individual seedlings of OE line 6 and AS line 12 were sprayed on alternate days with zeatin or kinetin (0.01 μM), over a period of four weeks. Two WT plants were similarly treated for comparison. […] E) The control OE lines bolt at 4 leaf stage. B) and D) Three individuals of OE line 6 sprayed with zeatin and kinetin respectively, show bolting only after they have reached the 6-7 leaf stage. […] (Note that panels A, B, E and F are in the main FIG. 2 as panels G, H, I and J, and these are included here for ease of comparison only).

[3] = system: tobacco genome in suspension cultures; settings: relative to untreated material; cited from earlier work
[4] = biological target: T2, purified TAP-HOG1 (Arabidopsis thaliana, UniProt O23255); assay: TAP-HOG1 and AHP1 interaction by ITC; assay type: binding; settings: recombinant AHP1 injected into purified TAP-HOG1, read-out: KD (dissociation constant)
T2 construct: Protein A (ProtA part of the TAP tag, TEV site between ProtA and CBP) (N, cleaved yes); made in house; host or cells: TAP-HOG1: transgenic Arabidopsis thaliana (35S:TAP-HOG1); AHP1: E. coli BL21 (PET32EK/LIC)
T2 sequence (O23255 whole entry, looked up): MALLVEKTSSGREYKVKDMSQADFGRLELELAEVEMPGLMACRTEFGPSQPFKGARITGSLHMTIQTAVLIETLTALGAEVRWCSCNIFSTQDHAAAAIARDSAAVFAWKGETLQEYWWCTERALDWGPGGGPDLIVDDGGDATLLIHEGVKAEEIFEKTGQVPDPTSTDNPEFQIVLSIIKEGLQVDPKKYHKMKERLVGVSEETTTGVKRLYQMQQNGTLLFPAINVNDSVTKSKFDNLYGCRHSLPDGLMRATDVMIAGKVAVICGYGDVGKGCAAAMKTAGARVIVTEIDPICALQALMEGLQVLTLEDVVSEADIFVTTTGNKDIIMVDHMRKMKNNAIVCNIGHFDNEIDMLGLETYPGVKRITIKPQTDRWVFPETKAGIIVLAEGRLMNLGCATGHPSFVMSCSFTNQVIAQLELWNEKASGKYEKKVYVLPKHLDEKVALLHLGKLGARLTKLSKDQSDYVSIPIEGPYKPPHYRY
Experimental: as §1
TAP-HOG1 protein complex was purified using the ProtA and CBP tags as described before in Forler et al. (supra). For ProtA pulldown, IgG Sepharose beads (Amersham Biosciences #17-0969-01) and for CBP pulldown Calmodulin affinity resin (Stratagene #214303-52) were used. The purified protein was subjected to SDS-PAGE and blotted to PVDF membranes for Western blot analysis using standard protocols. […]

[5] = biological target: T3, recombinant AHP1 with six-His and thioredoxin tags, expressed in E. coli (Arabidopsis thaliana, UniProt Q9ZNV9 1-154); assay: ITC; purified AHP1 injected into a cell containing purified TAP-HOG1
T3 construct: This is the form used in ITC; also called purified AHP1; Arabidopsis histidine phosphotransfer protein 1; not shown: thioredoxin tag and six-His tag from the vector PET32EK/LIC (Novagen)
T3 sequence (looked up): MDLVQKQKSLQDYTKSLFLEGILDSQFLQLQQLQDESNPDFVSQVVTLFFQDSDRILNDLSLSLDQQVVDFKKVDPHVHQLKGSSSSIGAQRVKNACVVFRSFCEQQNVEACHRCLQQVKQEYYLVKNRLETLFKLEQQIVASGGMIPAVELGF
Experimental: C) Purification of TAP-HOG1 complex. […] D) SDS-polyacrylamide gel electrophoresis of recombinant AHP1 purification. AHP1 was expressed with six-His and thioredoxin-tags in *E. coli*. Lane 1 has total cell lysate and purified AHP1 with the tags is in lane 2. E) TAP-HOG1 and AHP1 interaction was performed with ITC.
as §1, with “µM” for “μM”

[6] = system: S-adenosyl homocysteine hydrolase (SAHH) activity; assay: SAHH spectrophotometric assay; assay type: biochemical, Arabidopsis thaliana; settings: purified protein
[7] = ITC, control molecules, purified TAP-HOG1, read-out: KD (dissociation constant)

O=C(Nc1ccccc1)Nc1cnns1 [thidiazuron]
binding to HOG1 ([1]; ITC, performed as with zeatin): does not bind

NC(=O)c1ccc[n+]([C@@H]2O[C@H](COP(=O)([O-])OP(=O)(O)OC[C@H]3O[C@@H](n4cnc5c(N)ncnc54)[C@H](O)[C@@H]3O)[C@@H](O)[C@H]2O)c1 [NAD+]
Kd [1, 7]: 39500 nM

c1coc(CNc2ncnc3[nH]cnc23)c1 [kinetin]
phenotype compared with control AS lines [2]: did not show any significant difference in phenotype

C/C(=C\CNc1ncnc2[nH]cnc12)CO [zeatin]
phenotype compared with control AS lines [2]: did not show any significant difference in phenotype
Kd [1]: 16.9 to 20.6 nM

Nc1ncnc2c1ncn2C[C@H](O)CO [(S)-9-(2,3-dihydroxypropyl)adenine]
decrease of SAM:SAH ratio at which genome hypomethylation occurred [3]: 300 folds

Nc1ncnc2nc[nH]c12 [adenine]
Kd [1, 7]: 2100 nM

B1: AHP1: recombinant Arabidopsis histidine phosphotransfer protein 1 with six-HIS and thioredoxin tags, expressed in E. coli (protein)
chain: MDLVQKQKSLQDYTKSLFLEGILDSQFLQLQQLQDESNPDFVSQVVTLFFQDSDRILNDLSLSLDQQVVDFKKVDPHVHQLKGSSSSIGAQRVKNACVVFRSFCEQQNVEACHRCLQQVKQEYYLVKNRLETLFKLEQQIVASGGMIPAVELGF
modifications: left off: large carriers
notes: recombinant Arabidopsis histidine phosphotransfer protein 1 with six-HIS and thioredoxin tags, expressed in E. coli
Kd [4]: 23.8 nM

B2: purified TAP-HOG1 protein (HOG1 retaining the CBP portion of the TAP tag, 60 kDa) (receptor, not shown: small tags and cut ends)
chain: MALIVEKTSGGREYKVKDMSQADFGRLELELAEVEMPGLMACRTEFGPAQPFKGARITGSLHMTIQTAVLIETLTALGAEVRWCSCNIFSTQDHAAAAIARDSAAVFAWKGETLQEYWWCTERALDWGPGGGPDLIVDDGGDATLLIHEGVKAEEIFEKTGQVPDPTSTDNPEFQIVLSIIKEGLQVDPKKYHKMKGRLVGVSEETTTGVKRLYQMQESGALLFPAINVNDSVTKSKFDNLYGCRHSLPDGLMRATDVMIAGKVAVICGYGDVGKGCAAAMKTAGARVIVTEIDPICALQAMMEGLQVLTLEDVVSEADIFVTTTGNKDIIMVDHMRKMKNNAIVCNIGHFDNEIDMQGLETFPGVKRITIKPQTDRWVFPDTKSGIIVLAEGRLMNLGCATGHPSFVMSCSFTNQVIAQLELWNEKSSGKYEKKVYVLPKHLDEKVAALHLGKLGAKLTKLTKDQSDYVSIPIEGPYKPPHYRY
notes: Purified from transgenic Arabidopsis thaliana carrying 35S:TAP-HOG1, using the Prot A and CBP tags; After purification it keeps only the CBP portion of the tag (60 kDa; HOG1 alone would be 56 kDa); also called Homology-dependent gene silencing 1
Kd [5]: 23.8 nM

B3: TAP-HOG1: TAP-tagged HOG1 polypeptide (SEQ ID NO: 1) purified from transgenic Arabidopsis thaliana (protein, listed as Arabidopsis thaliana)
chain: MALIVEKTSGGREYKVKDMSQADFGRLELELAEVEMPGLMACRTEFGPAQPFKGARITGSLHMTIQTAVLIETLTALGAEVRWCSCNIFSTQDHAAAAIARDSAAVFAWKGETLQEYWWCTERALDWGPGGGPDLIVDDGGDATLLIHEGVKAEEIFEKTGQVPDPTSTDNPEFQIVLSIIKEGLQVDPKKYHKMKGRLVGVSEETTTGVKRLYQMQESGALLFPAINVNDSVTKSKFDNLYGCRHSLPDGLMRATDVMIAGKVAVICGYGDVGKGCAAAMKTAGARVIVTEIDPICALQAMMEGLQVLTLEDVVSEADIFVTTTGNKDIIMVDHMRKMKNNAIVCNIGHFDNEIDMQGLETFPGVKRITIKPQTDRWVFPDTKSGIIVLAEGRLMNLGCATGHPSFVMSCSFTNQVIAQLELWNEKSSGKYEKKVYVLPKHLDEKVAALHLGKLGAKLTKLTKDQSDYVSIPIEGPYKPPHYRY
modifications: TAP tag; HOG1 Arabidopsis thaliana
SAHH enzyme activity [6]: lacks measurable SAHH activity; also recorded: lacks SAHH enzyme activity

Source: patent US9290777B2, “Putative cytokinin receptor and methods for use thereof” (NATIONAL UNIVERSITY OF SINGAPORE, priority 2007, dated 2016)
